Experimental data: ChEMBL document CHEMBL5465560, “Selectivity Literature for EUbOPEN Chemogenomic Library” (2024)

Experiments:
[1] = target: Receptor tyrosine-protein kinase erbB-4 (Homo sapiens, UniProt Q15303); assay: Selectivity interaction (KinomeScan (DiscoverX)) EUB0000666a ERBB4; settings: at 10 µM
[2] = target: Mitogen-activated protein kinase 3 (Homo sapiens, UniProt P27361); assay: Selectivity interaction (KinomeScan (DiscoverX)) EUB0000607a MAPK3; settings: at 10 µM
[3] = target: Vascular endothelial growth factor receptor 3 (Homo sapiens, UniProt P35916); assay: Selectivity interaction (SelectScreen profiling (Invitrogen)) EUB0000607a FLT4; settings: at 2 µM
[4] = target: Phosphatidylinositol 4,5-bisphosphate 3-kinase catalytic subunit beta isoform (Homo sapiens) (UniProt P42338); assay: Selectivity interaction (ActivX KiNativ screen (kinase selectivity in THP-1 cell lysates)) EUB0000639a PIK3CB; type: subcellular; settings: lysate
Sequence of Phosphatidylinositol 4,5-bisphosphate 3-kinase catalytic subunit beta isoform (Homo sapiens) (P42338 whole entry, looked up, canonical isoform): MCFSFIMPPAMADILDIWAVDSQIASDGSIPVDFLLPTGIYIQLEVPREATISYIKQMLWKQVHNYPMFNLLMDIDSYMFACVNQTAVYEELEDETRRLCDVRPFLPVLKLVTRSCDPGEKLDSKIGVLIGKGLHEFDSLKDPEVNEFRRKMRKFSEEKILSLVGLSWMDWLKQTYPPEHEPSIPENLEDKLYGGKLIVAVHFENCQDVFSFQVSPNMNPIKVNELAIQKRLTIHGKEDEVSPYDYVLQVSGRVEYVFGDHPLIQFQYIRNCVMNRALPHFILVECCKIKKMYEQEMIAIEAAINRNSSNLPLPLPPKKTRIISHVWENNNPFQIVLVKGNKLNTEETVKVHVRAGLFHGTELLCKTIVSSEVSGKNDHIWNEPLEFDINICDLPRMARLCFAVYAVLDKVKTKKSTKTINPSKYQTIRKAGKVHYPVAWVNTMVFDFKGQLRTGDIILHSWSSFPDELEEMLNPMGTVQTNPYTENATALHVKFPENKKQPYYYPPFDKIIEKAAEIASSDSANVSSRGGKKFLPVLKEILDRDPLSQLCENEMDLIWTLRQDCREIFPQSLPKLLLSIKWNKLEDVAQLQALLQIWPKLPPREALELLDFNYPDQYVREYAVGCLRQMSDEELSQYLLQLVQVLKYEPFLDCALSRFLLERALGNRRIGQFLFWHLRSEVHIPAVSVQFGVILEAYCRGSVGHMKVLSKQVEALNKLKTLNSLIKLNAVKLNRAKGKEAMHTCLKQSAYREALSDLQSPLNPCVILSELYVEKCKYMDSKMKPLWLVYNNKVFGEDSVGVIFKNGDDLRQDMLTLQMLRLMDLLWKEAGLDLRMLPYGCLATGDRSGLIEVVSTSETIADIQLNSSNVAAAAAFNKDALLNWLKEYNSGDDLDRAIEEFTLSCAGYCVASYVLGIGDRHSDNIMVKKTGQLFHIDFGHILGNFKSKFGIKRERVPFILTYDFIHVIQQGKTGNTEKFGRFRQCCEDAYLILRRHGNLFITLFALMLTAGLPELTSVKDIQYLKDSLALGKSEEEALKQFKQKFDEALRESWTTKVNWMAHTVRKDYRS

[5] = target: T1, Mitogen-activated protein kinase kinase kinase kinase 2 (Homo sapiens) (UniProt Q12851); assay: Selectivity interaction (ActivX KiNativ screen (kinase selectivity in THP-1 cell lysates)) EUB0000639a MAP4K2; type: subcellular; settings: lysate, at 1 µM
T1 sequence (whole entry): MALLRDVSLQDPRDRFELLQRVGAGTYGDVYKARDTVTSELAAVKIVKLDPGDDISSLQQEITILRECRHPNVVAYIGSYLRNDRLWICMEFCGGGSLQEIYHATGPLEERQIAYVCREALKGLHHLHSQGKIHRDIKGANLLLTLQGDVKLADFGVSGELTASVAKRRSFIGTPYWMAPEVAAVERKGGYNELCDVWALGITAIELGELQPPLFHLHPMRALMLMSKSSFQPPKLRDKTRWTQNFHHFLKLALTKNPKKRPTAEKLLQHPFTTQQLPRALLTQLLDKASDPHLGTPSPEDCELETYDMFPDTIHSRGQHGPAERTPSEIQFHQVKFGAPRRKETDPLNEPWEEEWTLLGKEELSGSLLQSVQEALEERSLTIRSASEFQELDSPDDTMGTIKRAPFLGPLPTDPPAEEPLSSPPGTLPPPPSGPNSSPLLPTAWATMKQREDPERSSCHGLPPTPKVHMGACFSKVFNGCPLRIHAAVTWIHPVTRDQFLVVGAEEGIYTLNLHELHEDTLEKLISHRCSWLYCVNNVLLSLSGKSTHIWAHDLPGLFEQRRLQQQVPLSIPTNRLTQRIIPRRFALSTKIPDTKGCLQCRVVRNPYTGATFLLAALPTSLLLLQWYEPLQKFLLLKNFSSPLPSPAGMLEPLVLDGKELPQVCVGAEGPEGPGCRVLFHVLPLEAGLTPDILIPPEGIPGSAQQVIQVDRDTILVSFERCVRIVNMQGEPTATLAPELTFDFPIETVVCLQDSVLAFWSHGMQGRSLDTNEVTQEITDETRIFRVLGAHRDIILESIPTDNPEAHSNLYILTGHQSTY

[6] = Selectivity interaction (ActivX KiNativ screen (kinase selectivity in THP-1 cell lysates)) EUB0000639a STLK6; settings: Selectivity number of off-targets 5; Selectivity number of targets 283; Source Knowledge https://pubmed.ncbi.nlm.nih.gov/28498658/; at 5 µM
[7] = target: Ribosomal protein S6 kinase alpha-6 (Homo sapiens, UniProt Q9UK32); assay: Selectivity interaction (KinomeScan (DiscoverX)) EUB0000695a RPS6KA6; settings: at 100 nM
Sequence of Ribosomal protein S6 kinase alpha-6 (Q9UK32 whole entry): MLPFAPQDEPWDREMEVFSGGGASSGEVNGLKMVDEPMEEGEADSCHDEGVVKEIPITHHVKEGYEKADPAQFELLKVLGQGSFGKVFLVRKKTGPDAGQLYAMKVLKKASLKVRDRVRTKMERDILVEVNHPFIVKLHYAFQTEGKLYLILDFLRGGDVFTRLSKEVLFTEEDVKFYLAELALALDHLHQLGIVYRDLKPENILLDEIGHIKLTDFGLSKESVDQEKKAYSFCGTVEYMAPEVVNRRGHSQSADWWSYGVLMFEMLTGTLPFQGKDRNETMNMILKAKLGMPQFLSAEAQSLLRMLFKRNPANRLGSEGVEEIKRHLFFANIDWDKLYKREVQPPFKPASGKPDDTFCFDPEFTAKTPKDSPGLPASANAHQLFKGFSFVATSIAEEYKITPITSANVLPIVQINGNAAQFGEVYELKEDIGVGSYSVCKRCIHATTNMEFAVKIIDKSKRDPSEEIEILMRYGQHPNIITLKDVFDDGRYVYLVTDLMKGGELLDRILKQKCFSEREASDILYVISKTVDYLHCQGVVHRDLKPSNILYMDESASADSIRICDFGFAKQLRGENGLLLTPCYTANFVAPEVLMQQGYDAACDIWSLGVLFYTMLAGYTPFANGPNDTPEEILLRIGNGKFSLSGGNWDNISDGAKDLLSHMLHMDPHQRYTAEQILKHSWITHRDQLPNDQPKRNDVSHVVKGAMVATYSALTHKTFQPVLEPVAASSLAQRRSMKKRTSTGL

[8] = target: Serine/threonine-protein kinase PAK 3 (Homo sapiens) (UniProt O75914); assay: Selectivity interaction (KinomeScan (DiscoverX)) EUB0000595a PAK3; settings: at 10 µM
Sequence of Serine/threonine-protein kinase PAK 3 (Homo sapiens) (O75914 whole entry, looked up): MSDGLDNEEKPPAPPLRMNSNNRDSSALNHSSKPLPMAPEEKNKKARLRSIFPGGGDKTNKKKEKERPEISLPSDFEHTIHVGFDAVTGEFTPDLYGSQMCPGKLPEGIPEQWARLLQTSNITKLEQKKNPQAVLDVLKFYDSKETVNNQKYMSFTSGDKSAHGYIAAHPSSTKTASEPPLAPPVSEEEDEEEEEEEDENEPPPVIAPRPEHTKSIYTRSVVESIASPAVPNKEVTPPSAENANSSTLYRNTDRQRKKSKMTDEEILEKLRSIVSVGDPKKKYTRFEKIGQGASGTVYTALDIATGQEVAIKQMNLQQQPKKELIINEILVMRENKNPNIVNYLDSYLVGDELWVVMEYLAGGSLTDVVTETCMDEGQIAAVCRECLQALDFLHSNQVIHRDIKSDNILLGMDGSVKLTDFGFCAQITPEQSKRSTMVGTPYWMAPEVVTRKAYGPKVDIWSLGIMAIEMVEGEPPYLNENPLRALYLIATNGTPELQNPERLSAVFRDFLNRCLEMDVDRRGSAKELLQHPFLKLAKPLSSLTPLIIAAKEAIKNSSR

[9] = target: T2, Serine/threonine-protein kinase STK11 (Homo sapiens) (UniProt Q15831); assay: Selectivity interaction (KinomeScan (DiscoverX)) EUB0001049a STK11; settings: at 1 µM
T2 sequence (whole entry): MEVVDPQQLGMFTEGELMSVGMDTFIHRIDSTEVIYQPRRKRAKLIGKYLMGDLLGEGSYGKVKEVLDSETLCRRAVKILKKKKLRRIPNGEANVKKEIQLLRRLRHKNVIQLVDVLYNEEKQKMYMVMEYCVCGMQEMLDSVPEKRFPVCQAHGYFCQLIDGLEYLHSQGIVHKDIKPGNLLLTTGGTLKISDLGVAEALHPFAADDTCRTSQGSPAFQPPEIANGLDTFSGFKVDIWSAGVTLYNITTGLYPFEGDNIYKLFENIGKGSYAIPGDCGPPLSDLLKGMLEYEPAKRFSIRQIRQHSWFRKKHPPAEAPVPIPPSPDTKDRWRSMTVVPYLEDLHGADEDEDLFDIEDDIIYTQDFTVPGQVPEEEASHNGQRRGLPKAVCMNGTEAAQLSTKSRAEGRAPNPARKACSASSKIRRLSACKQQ

[10] = target: Leucine-rich repeat serine/threonine-protein kinase 2 (Homo sapiens, UniProt Q5S007); assay: Selectivity interaction (SelectScreen Kinase Profiling (Thermo Fisher Scientific)) EUB0001558a LRRK2; settings: at 1 µM
[11] = target: T3, Serine/threonine-protein kinase 3 (Homo sapiens) (UniProt Q13188); assay: Selectivity interaction (KinomeScan (DiscoverX)) EUB0000655a STK3; settings: at 10 µM
T3 sequence (whole entry): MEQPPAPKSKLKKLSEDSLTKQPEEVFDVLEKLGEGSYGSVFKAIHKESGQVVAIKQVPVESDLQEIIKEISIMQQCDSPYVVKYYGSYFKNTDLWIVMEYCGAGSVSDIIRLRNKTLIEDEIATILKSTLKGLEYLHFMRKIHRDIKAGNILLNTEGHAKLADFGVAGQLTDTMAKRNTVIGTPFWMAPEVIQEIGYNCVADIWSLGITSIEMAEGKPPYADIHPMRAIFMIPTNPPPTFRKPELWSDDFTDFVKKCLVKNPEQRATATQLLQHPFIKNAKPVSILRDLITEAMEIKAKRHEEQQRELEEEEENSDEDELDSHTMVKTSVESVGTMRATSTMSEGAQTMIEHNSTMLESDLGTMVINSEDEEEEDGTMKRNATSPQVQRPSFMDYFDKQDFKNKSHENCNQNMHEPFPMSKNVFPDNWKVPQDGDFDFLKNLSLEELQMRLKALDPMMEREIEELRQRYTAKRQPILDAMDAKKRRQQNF

[12] = target: T1, Mitogen-activated protein kinase kinase kinase kinase 2 (Homo sapiens); assay: Selectivity interaction (KinomeScan (DiscoverX)) EUB0001079a MAP4K2; settings: at 1 µM
[13] = target: NT-3 growth factor receptor (Homo sapiens, UniProt Q16288); assay: Selectivity interaction (KinomeScan (DiscoverX)) EUB0001079a NTRK3; settings: at 1 µM
[14] = target: Serine/threonine-protein kinase Nek6 (Homo sapiens) (UniProt Q9HC98); assay: Selectivity interaction (KinomeScan (DiscoverX)) EUB0000229b NEK6; settings: at 10 µM
[15] = target: Mitogen-activated protein kinase kinase kinase kinase 1 (Homo sapiens) (UniProt Q92918); settings: at 10 µM
Sequence of Mitogen-activated protein kinase kinase kinase kinase 1 (Homo sapiens) (Q92918 whole entry, looked up): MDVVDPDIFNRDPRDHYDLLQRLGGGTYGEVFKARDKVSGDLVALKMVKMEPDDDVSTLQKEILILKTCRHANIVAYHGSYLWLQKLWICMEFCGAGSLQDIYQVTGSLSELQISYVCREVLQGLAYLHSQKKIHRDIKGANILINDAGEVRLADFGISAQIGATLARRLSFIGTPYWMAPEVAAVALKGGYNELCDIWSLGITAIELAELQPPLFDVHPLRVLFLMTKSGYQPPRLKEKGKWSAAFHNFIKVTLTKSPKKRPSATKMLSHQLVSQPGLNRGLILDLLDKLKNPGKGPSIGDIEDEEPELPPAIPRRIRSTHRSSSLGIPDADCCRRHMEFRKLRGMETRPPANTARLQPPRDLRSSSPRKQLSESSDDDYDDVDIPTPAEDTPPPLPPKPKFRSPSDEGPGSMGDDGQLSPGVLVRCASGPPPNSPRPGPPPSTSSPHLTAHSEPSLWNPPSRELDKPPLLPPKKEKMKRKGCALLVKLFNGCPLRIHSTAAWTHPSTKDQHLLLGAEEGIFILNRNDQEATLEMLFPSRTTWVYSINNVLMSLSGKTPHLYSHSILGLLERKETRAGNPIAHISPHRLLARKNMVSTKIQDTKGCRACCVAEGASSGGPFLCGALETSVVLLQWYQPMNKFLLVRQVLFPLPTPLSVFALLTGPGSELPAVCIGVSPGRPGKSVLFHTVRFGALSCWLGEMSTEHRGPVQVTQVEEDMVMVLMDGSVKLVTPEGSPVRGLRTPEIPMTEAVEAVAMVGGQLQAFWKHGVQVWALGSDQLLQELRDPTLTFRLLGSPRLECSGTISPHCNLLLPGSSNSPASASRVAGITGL

[16] = target: Serine/threonine-protein kinase pim-2 (Homo sapiens, UniProt Q9P1W9); assay: Selectivity interaction (KinomeScan (DiscoverX)) EUB0000618a PIM2; settings: at 10 µM
Sequence of Serine/threonine-protein kinase pim-2 (Q9P1W9 whole entry, looked up): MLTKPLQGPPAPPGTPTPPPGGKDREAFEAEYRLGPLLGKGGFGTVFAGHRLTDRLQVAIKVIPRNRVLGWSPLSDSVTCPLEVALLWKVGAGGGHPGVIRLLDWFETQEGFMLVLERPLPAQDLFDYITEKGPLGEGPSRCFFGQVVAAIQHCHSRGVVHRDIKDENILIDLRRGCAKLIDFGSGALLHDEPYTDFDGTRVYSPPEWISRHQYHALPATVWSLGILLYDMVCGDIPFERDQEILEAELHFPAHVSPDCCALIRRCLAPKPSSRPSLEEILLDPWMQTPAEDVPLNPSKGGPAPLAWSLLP

Sequence of Receptor tyrosine-protein kinase erbB-4 (Q15303 whole entry): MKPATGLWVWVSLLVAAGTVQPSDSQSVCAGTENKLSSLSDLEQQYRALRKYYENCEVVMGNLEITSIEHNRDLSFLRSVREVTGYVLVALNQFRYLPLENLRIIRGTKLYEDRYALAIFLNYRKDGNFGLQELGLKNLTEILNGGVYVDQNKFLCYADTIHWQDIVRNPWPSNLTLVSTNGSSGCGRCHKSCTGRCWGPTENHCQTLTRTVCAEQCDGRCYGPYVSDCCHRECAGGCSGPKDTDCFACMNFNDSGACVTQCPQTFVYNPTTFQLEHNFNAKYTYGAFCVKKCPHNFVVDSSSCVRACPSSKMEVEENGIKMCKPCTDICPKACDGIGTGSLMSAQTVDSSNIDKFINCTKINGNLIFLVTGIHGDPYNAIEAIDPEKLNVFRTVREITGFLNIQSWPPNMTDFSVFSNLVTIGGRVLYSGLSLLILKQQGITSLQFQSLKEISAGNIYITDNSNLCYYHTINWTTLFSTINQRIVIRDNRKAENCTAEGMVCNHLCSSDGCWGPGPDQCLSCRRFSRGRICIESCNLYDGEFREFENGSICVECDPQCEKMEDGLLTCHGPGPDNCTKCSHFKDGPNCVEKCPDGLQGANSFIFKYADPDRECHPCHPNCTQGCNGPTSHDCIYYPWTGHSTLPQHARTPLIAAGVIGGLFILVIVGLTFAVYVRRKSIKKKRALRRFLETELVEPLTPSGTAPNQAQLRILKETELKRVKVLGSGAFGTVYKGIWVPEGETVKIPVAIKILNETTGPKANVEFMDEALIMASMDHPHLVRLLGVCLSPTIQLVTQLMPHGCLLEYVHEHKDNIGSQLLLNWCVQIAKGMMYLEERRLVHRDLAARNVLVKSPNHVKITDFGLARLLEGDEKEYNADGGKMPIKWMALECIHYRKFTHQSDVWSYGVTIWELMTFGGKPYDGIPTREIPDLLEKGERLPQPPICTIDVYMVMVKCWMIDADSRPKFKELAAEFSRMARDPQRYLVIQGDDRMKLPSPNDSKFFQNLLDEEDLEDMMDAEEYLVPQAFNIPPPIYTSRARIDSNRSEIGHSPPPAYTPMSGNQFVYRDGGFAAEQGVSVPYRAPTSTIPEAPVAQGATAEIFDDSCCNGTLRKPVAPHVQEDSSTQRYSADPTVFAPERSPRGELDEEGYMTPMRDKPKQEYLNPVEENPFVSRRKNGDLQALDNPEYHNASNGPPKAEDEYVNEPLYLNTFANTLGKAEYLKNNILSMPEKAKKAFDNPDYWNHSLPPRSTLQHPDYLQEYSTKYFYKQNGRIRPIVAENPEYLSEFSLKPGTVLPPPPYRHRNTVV

**Q.** With `O=C(NOC[C@H](O)CO)c1ccc(F)c(F)c1Nc1ccc(I)cc1F` as the compound, how does the % of control [1] read?
**A.** The % of control was 100%.

**Q.** For `CNC(=O)Nc1ccc(-c2nc(N3CC4CCC(C3)O4)c3cnn(C4CCC5(CC4)OCCO5)c3n2)cc1`, which % of control [2] is on record?
**A.** Its % of control is 97%.

**Q.** And the % of inhibition [3]?
**A.** Its % of inhibition is 4%.

**Q.** For `CC[C@@H]1[C@H](F)C(=O)N[C@@H]1COc1nccc2cc(C(N)=O)c(OC)cc12` [ZIMLOVISERTIB], which % of inhibition ([4]; at 0.01 µM) is on record?
**A.** Its % of inhibition is -2.4%.

**Q.** What about the % of inhibition ([4]; at 0.04 µM) of the same compound?
**A.** The % of inhibition was 1.2%.

**Q.** And the % of inhibition ([4]; at 0.2 µM)?
**A.** Its % of inhibition is -29.5%.

**Q.** What about the % of inhibition ([4]; at 1 µM) of the same compound?
**A.** Its % of inhibition is -29%.

**Q.** What about the % of inhibition ([4]; at 5 µM) of the same compound?
**A.** The % of inhibition was 14.7%.

**Q.** What about the % of inhibition [5] of the same compound?
**A.** Its % of inhibition is -10.5%.

**Q.** What about the “% of inhibition” value [6] of the same compound?
**A.** The value was -4.2%.

**Q.** For `Cc1cc(F)c(C(=O)Nc2cccc(-c3nncn3C(C)C)n2)cc1-n1cnc(C2CC2)c1`, which % of control [7] is on record?
**A.** The % of control was 22%.

**Q.** For `COCC(=O)NC/C=C/c1ccc2ncnc(Nc3ccc(Oc4ccc(C)nc4)c(C)c3)c2c1` [CP-724714], which % of control [8] is on record?
**A.** Its % of control is 70%.

**Q.** With `COc1cc(Nc2nc(C)cc(-c3cnn4nc(OC)ccc34)n2)cc(C(F)(F)F)c1` as the compound, how does the % of control [9] read?
**A.** Its % of control is 100%.

**Q.** Which % of inhibition [10] does the source give for `CC(C)(O)[C@H](F)CN1Cc2cc(NC(=O)c3cnn4cccnc34)c(N3CCOCC3)cc2C1=O` here?
**A.** Its % of inhibition is 91.4%.

**Q.** With `CN(C)CCOc1ccc(-c2nc(-c3ccncc3)c(-c3ccc4c(c3)CC/C4=N\O)[nH]2)cc1` as the compound, how does the % of control [11] read?
**A.** Its % of control is 88%.

**Q.** With `Nc1cnc(N2CCc3cc(S(=O)(=O)Nc4c(F)cc(Cl)cc4F)cc(N4CCCC4=O)c32)nc1` [TP-020n] as the compound, how does the % of control [12] read?
**A.** The % of control was 90%.

**Q.** What about the % of control [13] of the same compound?
**A.** The % of control was 97%.

**Q.** With `COc1cc(N(C)c2ccnc3ccc(C(F)(F)F)cc23)cc(OC)c1OC` as the compound, how does the % binding [14] read?
**A.** Its % binding is 100%.

**Q.** Which % of control [15] does the source give for `Cc1cc([C@@H](C)Nc2ccccc2C(=O)O)c2nc(N3CCOCC3)cc(=O)n2c1` [AZD-6482] here?
**A.** Its % of control is 100%.

**Q.** For `O[C@H]1CC[C@H](Nc2ncc3nc(Nc4c(F)cc(F)cc4F)n([C@H]4CCOC4)c3n2)CC1`, which % of control [16] is on record?
**A.** Its % of control is 100%.
